Where two headings read alike, the source gives them in different places.
What was measured:
monkey NPR1 = monkey NPR1 (Macaca fascicularis, UniProt A0A7N9DBT9); test: Cellular cGMP production assay, monkey NPR1 expressing CHO-K1 cells (CisBio HTRF); type: cell-based; conditions: for Monkey NPR1 Amax (% of ANP): maximum cGMP production as percentage of the maximum cGMP produced with ANP
Outline: (§1)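 12-pt 3-fold dose-response, top 30 μM; buffer PBS + 0.1% BSA + 1 mM IBMX (PDE inhibitor); 30 min, 37 °C. Lyse, add cGMP-d2 + anti-cGMP-cryptate, 1 h RT. Ex 317 / em 665 nm; Delta F converted to cGMP via calibrator standard curve.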

human NPR1 = target: T1, human NPR1 (Homo sapiens, UniProt P16066); test: Cellular cGMP production assay, human NPR1 expressing CHO-K1 cells (CisBio HTRF); type: cell-based; conditions: for AC50: cGMP production, 30 min at 37° C., 12-point dose-response from 30 μM; for Human NPR1 Amax (% of ANP): maximum cGMP production as percentage of the maximum cGMP produced with ANP
T1 construct: host or cells: CHO-K1
T1 sequence (P16066 33-1061): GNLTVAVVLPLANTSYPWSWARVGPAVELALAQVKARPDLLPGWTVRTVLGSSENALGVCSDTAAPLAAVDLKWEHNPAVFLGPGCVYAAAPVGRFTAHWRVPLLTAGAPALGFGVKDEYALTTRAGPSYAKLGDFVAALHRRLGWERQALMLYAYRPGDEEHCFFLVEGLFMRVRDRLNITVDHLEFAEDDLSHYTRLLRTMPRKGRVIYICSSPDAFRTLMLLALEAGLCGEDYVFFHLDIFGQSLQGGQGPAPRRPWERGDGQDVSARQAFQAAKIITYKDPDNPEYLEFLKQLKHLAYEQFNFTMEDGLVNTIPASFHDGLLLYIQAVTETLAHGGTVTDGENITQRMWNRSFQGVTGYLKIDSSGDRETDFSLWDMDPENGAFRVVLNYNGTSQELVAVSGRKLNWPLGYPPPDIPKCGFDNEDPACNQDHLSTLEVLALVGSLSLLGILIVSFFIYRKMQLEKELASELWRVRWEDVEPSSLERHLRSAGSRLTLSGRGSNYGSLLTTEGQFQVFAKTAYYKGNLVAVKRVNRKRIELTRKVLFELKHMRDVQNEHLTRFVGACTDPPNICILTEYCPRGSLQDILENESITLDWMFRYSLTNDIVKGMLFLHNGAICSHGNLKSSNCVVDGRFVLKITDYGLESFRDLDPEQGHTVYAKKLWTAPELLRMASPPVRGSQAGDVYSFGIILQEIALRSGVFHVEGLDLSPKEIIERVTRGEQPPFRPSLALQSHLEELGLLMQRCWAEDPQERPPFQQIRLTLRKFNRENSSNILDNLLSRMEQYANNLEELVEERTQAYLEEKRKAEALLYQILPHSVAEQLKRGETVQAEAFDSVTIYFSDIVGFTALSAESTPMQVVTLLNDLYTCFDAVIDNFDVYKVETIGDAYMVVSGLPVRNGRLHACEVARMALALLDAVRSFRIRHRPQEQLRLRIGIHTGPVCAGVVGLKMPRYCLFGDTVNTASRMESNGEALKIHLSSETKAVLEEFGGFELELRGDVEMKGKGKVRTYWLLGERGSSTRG
Outline: as §1

[1] = cGMP production, monkey NPR1 CHO-K1 cells, 30 min at 37° C., 12-point dose-response from 30 μM, read-out: Monkey NPR1 AC50

Sequence of monkey NPR1 (A0A7N9DBT9 entry or part of it): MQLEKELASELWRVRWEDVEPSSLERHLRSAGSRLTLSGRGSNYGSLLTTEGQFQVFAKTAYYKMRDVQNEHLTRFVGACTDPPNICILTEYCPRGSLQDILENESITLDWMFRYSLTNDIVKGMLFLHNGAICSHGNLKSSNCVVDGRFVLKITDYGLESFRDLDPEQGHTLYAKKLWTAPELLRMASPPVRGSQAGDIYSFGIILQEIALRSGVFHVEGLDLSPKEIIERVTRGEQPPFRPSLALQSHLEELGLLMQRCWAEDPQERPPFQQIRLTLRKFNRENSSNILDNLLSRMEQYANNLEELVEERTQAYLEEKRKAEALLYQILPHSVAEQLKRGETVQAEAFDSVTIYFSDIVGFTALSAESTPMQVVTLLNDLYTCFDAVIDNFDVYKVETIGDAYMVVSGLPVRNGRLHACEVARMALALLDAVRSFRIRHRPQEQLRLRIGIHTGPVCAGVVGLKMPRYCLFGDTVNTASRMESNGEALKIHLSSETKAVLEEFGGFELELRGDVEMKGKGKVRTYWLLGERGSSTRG

| Compound | AC50 (monkey NPR1) [nM] | Monkey NPR1 Amax (% of ANP) (monkey NPR1; monkey NPR1 CHO-K1 cells) | AC50 (human NPR1) [nM] | Human NPR1 Amax (% of ANP) (human NPR1) | AC50 (monkey NPR1; [1]) [nM] |
| --- | --- | --- | --- | --- | --- |
| CC[C@H]([C@H]1CC[C@H](C(=O)O)CC1)N(C)c1nc2c(c(N[C@@H](CN3C4CCCC3CC4)c3cn(C)nc3C)n1)C[C@H](c1cccc(F)c1)CC2 [Compound 102, (1R,4r)-4-((1R)-1-(((6R)-4-(((1R)-2-(8-azabicyclo[3.2.1]octan-8-yl)-1-(1,3-dimethyl-1H-pyrazol-4-yl)ethyl)amino)-6-(3-fluorophenyl)-5,6,7,8-tetrahydroquinazolin-2-yl)(methyl)amino)propyl)cyclohexane-1-carboxylic acid] | 279 | 107.819 % of ANP | 382 | 96.769 % of ANP |  |
| CC[C@@H](Nc1nc2c(c(N[C@@H](CN3CCC[C@H](C)C3)c3cnn(C)c3)n1)C[C@](C)(c1ccccc1F)CC2)[C@H]1CC[C@H](C(=O)O)CC1 [Compound 20, (1R,4r)-4-((R)-1-(((R)-6-(2-fluorophenyl)-6-methyl-4-(((R)-1-(1-methyl-1H-pyrazol-4-yl)-2-((S)-3-methylpiperidin-1-yl)ethyl)amino)-5,6,7,8-tetrahydroquinazolin-2-yl)amino)propyl)cyclohexane-1-carboxylic acid] |  | 92.710 % of ANP | 109 | 95.253 % of ANP | 60 |
| CC[C@@H](Nc1nc2c(c(N[C@@H](CN3C4CCCC3CCC4)c3cnn(CC)c3)n1)C[C@H](c1cccc(F)c1)CC2)[C@H]1CC[C@H](C(=O)O)CC1 [Compound 17, (1R,4r)-4-((R)-1-(((R)-4-(((R)-2-((1S,5S)-9-azabicyclo[3.3.1]nonan-9-yl)-1-(1-ethyl-1H-pyrazol-4-yl)ethyl)amino)-6-(3-fluorophenyl)-5,6,7,8-tetrahydroquinazolin-2-yl)amino)propyl)cyclohexane-1-carboxylic acid] | 68 | 99.682 % of ANP | 105 | 97.959 % of ANP |  |
| CC[C@H]([C@H]1CC[C@H](C(=O)O)CC1)N(C)c1nc2c(c(N[C@@H](CN3CC4CCC3C4)c3cnn(C)c3)n1)C[C@](C)(c1ccccc1)CC2 (stereo partly drawn) [Compound 68, (1R,4r)-4-((1R)-1-(((6R)-4-(((1R)-2-(2-azabicyclo[2.2.1]heptan-2-yl)-1-(1-methyl-1H-pyrazol-4-yl)ethyl)amino)-6-methyl-6-phenyl-5,6,7,8-tetrahydroquinazolin-2-yl)(methyl)amino)propyl)cyclohexane-1-carboxylic acid] |  | 101.066 % of ANP | 234 | 96.721 % of ANP | 95 |
| CC[C@@H](N(C)c1nc2c(c(N[C@@H](CN3CCC[C@H](C)C3)c3cnn(C)c3C)n1)C[C@H](c1cccc(F)c1)CC2)C12CC(C(=O)O)(C1)C2 [Compound 46] |  | 101.294 % of ANP | 179 | 93.728 % of ANP | 146 |
| CC[C@H]([C@H]1CC[C@H](C(=O)O)CC1)N(C)c1nc2c(c(N[C@@H](CN3CCC[C@H](C)C3)c3cnn(C)c3)n1)CN(c1cccc(C#N)c1)CC2 [Compound 174, (1R,4r)-4-((R)-1-((6-(3-cyanophenyl)-4-(((R)-1-(1-methyl-1H-pyrazol-4-yl)-2-((S)-3-methylpiperidin-1-yl)ethyl)amino)-5,6,7,8-tetrahydropyrido[4,3-d]pyrimidin-2-yl)(methyl)amino)propyl)cyclohexane-1-carboxylic acid] |  | 97.462 % of ANP | 14 | 93.788 % of ANP | 10 |
| CC[C@H]([C@H]1CC[C@H](C(=O)O)CC1)N(C)c1nc2c(c(N[C@@H](CN3CCCC(F)(F)CC3)c3cnn(C)c3)n1)C[C@H](c1ccccc1)CC2 [Compound 150, (1R,4r)-4-((R)-1-(((R)-4-(((R)-2-(4,4-difluoroazepan-1-yl)-1-(1-methyl-1H-pyrazol-4-yl)ethyl)amino)-6-phenyl-5,6,7,8-tetrahydroquinazolin-2-yl)(methyl)amino)propyl)cyclohexane-1-carboxylic acid] |  | 156.200 % of ANP | 1160 | 130.487 % of ANP | 1040 |
| CC[C@H]([C@H]1CC[C@H](C(=O)O)CC1)N(C)c1nc2c(c(N[C@@H](CN3CCCC(F)C3)c3cnn(C)c3)n1)C[C@H](c1ccccc1)CC2 (stereo partly drawn) [Compound 156, (1R,4r)-4-((1R)-1-(((6R)-4-(((1R)-2-(3-fluoropiperidin-1-yl)-1-(1-methyl-1H-pyrazol-4-yl)ethyl)amino)-6-phenyl-5,6,7,8-tetrahydroquinazolin-2-yl)(methyl)amino)propyl)cyclohexane-1-carboxylic acid] |  | 105.900 % of ANP | 1300 | 93.013 % of ANP | 1160 |
| CC[C@@H](Nc1nc2c(c(N[C@@H](CN3CCC[C@H](C)C3)c3cnn(C)c3)n1)C[C@H](c1ccccc1)CC2)[C@H]1CC[C@H](C(=O)O)CC1 [Compound 32, (1R,4r)-4-((R)-1-(((R)-4-(((R)-1-(1-methyl-1H-pyrazol-4-yl)-2-((S)-3-methylpiperidin-1-yl)ethyl)amino)-6-phenyl-5,6,7,8-tetrahydroquinazolin-2-yl)amino)propyl)cyclohexane-1-carboxylic acid] |  | 92.720 % of ANP | 144 | 99.842 % of ANP | 84 |
| CC[C@H]([C@H]1CC[C@H](C(=O)O)CC1)N(C)c1nc2c(c(N[C@@H](CN3CCC(O)CC3)c3cnn(CC)c3)n1)C[C@H](c1ccccc1)CC2 [Compound 154, (1R,4r)-4-((R)-1-(((R)-4-(((R)-1-(1-ethyl-1H-pyrazol-4-yl)-2-(4-hydroxypiperidin-1-yl)ethyl)amino)-6-phenyl-5,6,7,8-tetrahydroquinazolin-2-yl)(methyl)amino)propyl)cyclohexane-1-carboxylic acid] |  | 97.456 % of ANP | 1240 | 105.125 % of ANP | 802 |
| CC[C@@H](Nc1nc2c(c(N[C@@H](CN3CCCC3)c3ccccc3)n1)C[C@@H](c1ccccc1)CC2)[C@H]1CC[C@H](C(=O)O)CC1 [Compound 115, (1R,4r)-4-((R)-1-(((S)-6-phenyl-4-(((R)-1-phenyl-2-(pyrrolidin-1-yl)ethyl)amino)-5,6,7,8-tetrahydroquinazolin-2-yl)amino)propyl)cyclohexane-1-carboxylic acid] |  | 106.285 % of ANP | 474 | 111.049 % of ANP | 387 |
| CC[C@H]([C@H]1CC[C@H](C(=O)O)CC1)N(C)c1nc2c(c(N[C@@H](CN3CCC[C@H](C)C3)c3ccnn3C)n1)C[C@H](c1cccc(F)c1)CC2 [Compound 161, (1R,4r)-4-((R)-1-(((R)-6-(3-fluorophenyl)-4-(((S)-1-(1-methyl-1H-pyrazol-5-yl)-2-((S)-3-methylpiperidin-1-yl)ethyl)amino)-5,6,7,8-tetrahydroquinazolin-2-yl)(methyl)amino)propyl)cyclohexane-1-carboxylic acid] |  | 97.242 % of ANP | 1680 | 108.479 % of ANP | 989 |
| CC[C@@H](Nc1nc2c(c(N[C@@H](CN3C4CCCC3CCC4)c3ccccc3)n1)C[C@H](c1ccccc1)CC2)[C@H]1CC[C@H](C(=O)O)CC1 [Compound 108, (1R,4r)-4-((R)-1-(((R)-4-(((R)-2-((1S,5S)-9-azabicyclo[3.3.1]nonan-9-yl)-1-phenylethyl)amino)-6-phenyl-5,6,7,8-tetrahydroquinazolin-2-yl)amino)propyl)cyclohexane-1-carboxylic acid] | 248 | 99.706 % of ANP | 410 | 93.072 % of ANP |  |

Source: patent US12129246B1, “Hydroquinazoline derivatives for the treatment of a disease or disorder” (Novartis AG, priority 2023, dated 2024)
